Experimental data published in PMC8351955, “Targeting Mycobacterium tuberculosis response to environmental cues for the development of effective antitubercular drugs” (PLoS Biology, 2021).
Converted amounts (≈) assume the structure as drawn. Read-outs that look alike come from different tables or passages of the source.

Key:
[1] = tested on: CDC1551(rv2390c′::GFP) reporter Mtb strain; assay: microbe, parasite or virus in culture; details: Mycobacterium tuberculosis, 216 h
[2] = Pharmacokinetic assay, single oral dose in CD-1 mice; format: in vivo; details: female, mouse, plasma; CD-1 mice, single 5 mg/kg po dose; read-out: plasma AUC0–5h
Description: Blood samples were collected in K2EDTA-coated tubes predose, 0.5, 1, 3, and 5 hours post-dose, placed on ice, and centrifuged to recover plasma. The recovered plasma was kept at −80°C as needed prior to analysis, which was performed as previously described. In brief, a Sciex Applied Biosystems Qtrap 4000 triple-quadrupole mass spectrometer coupled to an Agilent 1260 HPLC system was used for HPLC coupled to tandem mass spectrometry (LC–MS/MS) quantitative analysis of the samples, with chromatography attained using an Agilent Zorbax SB-C8 column (2.1 × 30 mm; particle size, 3.5 μm) and a reverse-phase gradient elution. The aqueous mobile phase consisted of Milli-Q deionized water with 0.1% formic acid (A), while the organic mobile phase was 0.1% formic acid in acetonitrile (B). The gradient setup was as follows: 5% to 90% B over 2 minutes, 1 minute at 90% B, then an immediate drop to 5% B and an additional 1 minute at 5% B. Quantification of molecules was carried out via multiple reaction monitoring of parent/daughter transitions in electrospray positive ionization mode, and sample analyses accepted if quality control and standard samples had concentrations within 20% of the nominal concentration. Preparation of compounds for generation of standard curves and quality control spiking solutions were performed as previously described. Data were processed using Analyst software (Version 1.6.2; Applied Biosystems Sciex, Framingham, MA).

[3] = tested on: WT Mtb (Erdman) in primary murine BMDMs; assay: Primary murine bone marrow-derived macrophage infection, CFU; format: cell-based, Mycobacterium tuberculosis; details: 10 μM; for CFU/ml in BMDMs, average: Fig 1I
Description: C57BL/6J wild-type mice (Jackson Laboratories) were used for extraction of BMDMs. Cells were harvested and expanded in DMEM containing 10% FBS, 15% L-cell conditioned media, 2 mM L-glutamine, 1 mM sodium pyruvate, and penicillin/streptomycin as needed in a 37°C incubator in a 5% CO2 atmosphere. […] Macrophages were lysed with water containing 0.01% sodium dodecyl sulfate and a dilution series of the samples plated on 7H10 agar for CFU determination.

[4] = Mouse liver microsomal stability; format: in vitro ADME; details: mouse liver microsomes; read-out: half-life (t1/2) in mouse liver microsomes
Description: (§1) Assays examining mouse and human liver microsomal stability, kinetic aqueous solubility, mouse and human plasma protein binding and stability, and human cytochrome P450 inhibition characteristics of the compounds were run by BioDuro (San Diego, CA), using standard protocols as previously described [37]. hERG inhibition assays were also performed by BioDuro.

[5] = tested on: Mtb growth in J774 macrophage-like cells; assay: J774 infection in 96-well plates, mKO fluorescence 6 days post-infection; format: cell-based, Mycobacterium tuberculosis; details: 6 days post-infection
Procedure, shortened: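 J774 cells infected with mKO-expressing log-phase Mtb (40 μl at OD600 = 0.2 per well) and treated with compound at 10 μM final (0.1% DMSO). mKO fluorescence (ex 543/em 565 nm) read at infection and 6 days later at 37 °C, 5% CO2; growth expressed relative to DMSO controls as 100%.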

[6] = tested on: CDC1551(rv2390c′::GFP) reporter Mtb strain; details: pH 7
[7] = tested on: CDC1551(rv2390c′::GFP) reporter Mtb strain, response to high [Cl−]; assay: microbe, parasite or virus in culture; format: cell-based, Mycobacterium tuberculosis
[8] = tested on: Mtb growth in J774 murine macrophage-like cells; assay: microbe, parasite or virus in culture; format: cell-based, Mycobacterium tuberculosis; details: for NPI (Mtb growth in J774 cells), average: Fig 1F
[9] = Kinetic aqueous solubility; format: physicochemical; details: pH 7.4 phosphate buffered saline; read-out: kinetic aqueous solubility (S)
Description: as §1

[10] = tested on: CDC1551(rv1405c′::GFP) reporter Mtb strain; assay: microbe, parasite or virus in culture; format: cell-based, Mycobacterium tuberculosis; details: for NPA - rv1405c'::GFP, average: Fig 1D

## O=C(c1cnc2ccccn12)N1CCCC(CCc2cccc(C(F)(F)F)c2)C1 (stereo not shown) [C5, FC(F)(F)C1=CC=CC(CCC2CCCN(C2)C(=O)C2=CN=C3C=CC=CN23)=C1]
[1]; pH 7, read-out: Fold induction of rv2390c′::GFP reporter, average
  fold induction at 10 µM: 6.34
[1]; read-out: Fold induction of rv2390c′::GFP reporter, average
  fold induction at 10 µM: 5.92
[2]
  AUC(0-t): 42 ng·h/mL
[3]; 8-day infection time course, vs DMSO
  Effect on bacterial load / Mtb growth in primary murine BMDMs: significant decrease in bacterial load
[3]; day 2
  CFU/ml in BMDMs, average: 152000 CFU/ml
[3]; day 4
  CFU/ml in BMDMs, average: 191000 CFU/ml
[3]; day 6
  CFU/ml in BMDMs, average: 264500 CFU/ml
[3]; day 8
  CFU/ml in BMDMs, average: 318000 CFU/ml
[4]
  half-life: 4.98 min
[5]; 10 μM compound, DMSO = 100%, Fig 1H
  % growth of Mtb in J774 cells, average: 37.9568%
[5]; 10 μM
  Inhibition of Mtb growth in J774 cells: Mtb growth inhibition
[6]
  Ability to increase rv2390c′::GFP reporter signal in high [Cl−]: increased rv2390c′::GFP reporter signal
[7]; 0.0390625 µM, Fig 1C
  NPA - rv2390c'::GFP, average: 99.0333%
[7]; 0.078125 µM, Fig 1C
  NPA - rv2390c'::GFP, average: 96.3333%
[7]; 0.15625 µM, Fig 1C
  NPA - rv2390c'::GFP, average: 99.1%
[7]; 0.3125 µM, Fig 1C
  NPA - rv2390c'::GFP, average: 113.667%
[7]; 0.625 µM, Fig 1C
  NPA - rv2390c'::GFP, average: 116.667%
[7]; 1.25 µM, Fig 1C
  NPA - rv2390c'::GFP, average: 131.667%
[7]; 2.5 µM, Fig 1C
  NPA - rv2390c'::GFP, average: 132.333%
[7]; 5 µM, Fig 1C
  NPA - rv2390c'::GFP, average: 137%
[7]; 10 µM, Fig 1C
  NPA - rv2390c'::GFP, average: 131.333%
[7]; 20 µM, Fig 1C
  NPA - rv2390c'::GFP, average: 142.333%
[7]; Mycobacterium tuberculosis, 144 h, pH 6.4, […], DMSO positive control = 100%, read-out: Primary screen rv2390c'::GFP NPA%
  activity at 10 µM: 182%
[7]; Mycobacterium tuberculosis, 144 h, 10 µM, pH 6.4, 250 mM NaCl, 6 days, read-out: rv2390c'::GFP validation assay NPA% at 10 µM compound
  activity at 10 µM: 131 ± 9.8%
[7]; Mycobacterium tuberculosis, 144 h, 20 µM, pH 6.4, 250 mM NaCl, 6 days, read-out: rv2390c'::GFP validation assay NPA% at 20 µM compound
  activity at 20 µM: 142 ± 4.2%
[7]; Mycobacterium tuberculosis, 144 h, pH 6.4, 250 mM NaCl, 6 days, Fig 1C, read-out: AC50 (activatory concentration, 50%), rv2390c′::GFP
  AC50: 500 nM
[8]; 0.078125 µM, 5 µM rifampicin = 100% inhibition
  NPI (Mtb growth in J774 cells), average: -6.175%
[8]; 0.15625 µM
  NPI (Mtb growth in J774 cells), average: 0.5445%
[8]; 0.3125 µM
  NPI (Mtb growth in J774 cells), average: -0.235%
[8]; 0.625 µM
  NPI (Mtb growth in J774 cells), average: 9.79%
[8]; 1.25 µM
  NPI (Mtb growth in J774 cells), average: 32.35%
[8]; 2.5 µM
  NPI (Mtb growth in J774 cells), average: 39.55%
[8]; 5 µM
  NPI (Mtb growth in J774 cells), average: 48.4%
[8]; 10 µM
  NPI (Mtb growth in J774 cells), average: 50.85%
[8]; 20 µM
  NPI (Mtb growth in J774 cells), average: 55%
[8]; Mycobacterium tuberculosis, J774, 144 h, read-out: J774 tertiary assay % inhibition compared to Rif at 10 µM compound
  inhibition at 10 µM: 50.9 ± 3.2%
[8]; Mycobacterium tuberculosis, J774, 144 h, read-out: J774 tertiary assay % inhibition compared to Rif at 20 µM compound
  inhibition at 20 µM: 55 ± 5.8%
[9]
  solubility kinetic: 6.67 µM (≈ 2.68 µg/mL)
[10]; 0.0390625 µM
  NPA - rv1405c'::GFP, average: 91.05%
[10]; 0.078125 µM
  NPA - rv1405c'::GFP, average: 91.6%
[10]; 0.15625 µM
  NPA - rv1405c'::GFP, average: 98.45%
[10]; 0.3125 µM
  NPA - rv1405c'::GFP, average: 118%
[10]; 0.625 µM
  NPA - rv1405c'::GFP, average: 125%
[10]; 1.25 µM
  NPA - rv1405c'::GFP, average: 130%
[10]; 2.5 µM
  NPA - rv1405c'::GFP, average: 114.5%
[10]; 5 µM
  NPA - rv1405c'::GFP, average: 132.5%
[10]; 20 µM
  NPA - rv1405c'::GFP, average: 145.5%
[10]; Mycobacterium tuberculosis, read-out: rv1405c'::GFP secondary assay NPA% at 10 µM compound
  activity at 10 µM: 135 ± 14.8%
[10]; Mycobacterium tuberculosis, read-out: rv1405c'::GFP secondary assay NPA% at 20 µM compound
  activity at 20 µM: 147 ± 7%
